According to patent publication US9012443B2 (Amgen Inc., priority 2011, dated 2015):
Counter-ions that a name gives are not always drawn.

The compounds below were run against Nav 1.7 (Homo sapiens (Human), UniProt Q15858) (assay: Nav 1.7 in vitro PX assay (PatchXpress whole cell voltage clamp)). Conditions: 293 cells, human Nav1.7, partially inactivated state; read-out: Nav1.7 PX IC50 IP.
Assay type: cell-based
Experimental: Nav 1.7 In Vitro PX Assay
293 cells stably transfected with human Nav1.7 were recorded in whole cell voltage clamp mode with the PatchXpress automated electrophysiology system (Molecular Devices, LLC, Sunnyvale, Calif.). Compound effects were measured on a partially inactivated state of the sodium channel. Cells were clamped to a holding potential yielding 20 to 50% inactivation. To elicit sodium current, channels were activated by pulsing to −10 mV for 20 msec. […] A single concentration of test compound was applied to cells for a duration of 3 minutes. Peak sodium current was measured at the end of the compound addition period to determine percent inhibition. Three to five cells were tested per concentration, and IC50 curves were fitted to percent inhibition as a function of concentration.

Nav 1.7, sequence (Q15858 whole entry): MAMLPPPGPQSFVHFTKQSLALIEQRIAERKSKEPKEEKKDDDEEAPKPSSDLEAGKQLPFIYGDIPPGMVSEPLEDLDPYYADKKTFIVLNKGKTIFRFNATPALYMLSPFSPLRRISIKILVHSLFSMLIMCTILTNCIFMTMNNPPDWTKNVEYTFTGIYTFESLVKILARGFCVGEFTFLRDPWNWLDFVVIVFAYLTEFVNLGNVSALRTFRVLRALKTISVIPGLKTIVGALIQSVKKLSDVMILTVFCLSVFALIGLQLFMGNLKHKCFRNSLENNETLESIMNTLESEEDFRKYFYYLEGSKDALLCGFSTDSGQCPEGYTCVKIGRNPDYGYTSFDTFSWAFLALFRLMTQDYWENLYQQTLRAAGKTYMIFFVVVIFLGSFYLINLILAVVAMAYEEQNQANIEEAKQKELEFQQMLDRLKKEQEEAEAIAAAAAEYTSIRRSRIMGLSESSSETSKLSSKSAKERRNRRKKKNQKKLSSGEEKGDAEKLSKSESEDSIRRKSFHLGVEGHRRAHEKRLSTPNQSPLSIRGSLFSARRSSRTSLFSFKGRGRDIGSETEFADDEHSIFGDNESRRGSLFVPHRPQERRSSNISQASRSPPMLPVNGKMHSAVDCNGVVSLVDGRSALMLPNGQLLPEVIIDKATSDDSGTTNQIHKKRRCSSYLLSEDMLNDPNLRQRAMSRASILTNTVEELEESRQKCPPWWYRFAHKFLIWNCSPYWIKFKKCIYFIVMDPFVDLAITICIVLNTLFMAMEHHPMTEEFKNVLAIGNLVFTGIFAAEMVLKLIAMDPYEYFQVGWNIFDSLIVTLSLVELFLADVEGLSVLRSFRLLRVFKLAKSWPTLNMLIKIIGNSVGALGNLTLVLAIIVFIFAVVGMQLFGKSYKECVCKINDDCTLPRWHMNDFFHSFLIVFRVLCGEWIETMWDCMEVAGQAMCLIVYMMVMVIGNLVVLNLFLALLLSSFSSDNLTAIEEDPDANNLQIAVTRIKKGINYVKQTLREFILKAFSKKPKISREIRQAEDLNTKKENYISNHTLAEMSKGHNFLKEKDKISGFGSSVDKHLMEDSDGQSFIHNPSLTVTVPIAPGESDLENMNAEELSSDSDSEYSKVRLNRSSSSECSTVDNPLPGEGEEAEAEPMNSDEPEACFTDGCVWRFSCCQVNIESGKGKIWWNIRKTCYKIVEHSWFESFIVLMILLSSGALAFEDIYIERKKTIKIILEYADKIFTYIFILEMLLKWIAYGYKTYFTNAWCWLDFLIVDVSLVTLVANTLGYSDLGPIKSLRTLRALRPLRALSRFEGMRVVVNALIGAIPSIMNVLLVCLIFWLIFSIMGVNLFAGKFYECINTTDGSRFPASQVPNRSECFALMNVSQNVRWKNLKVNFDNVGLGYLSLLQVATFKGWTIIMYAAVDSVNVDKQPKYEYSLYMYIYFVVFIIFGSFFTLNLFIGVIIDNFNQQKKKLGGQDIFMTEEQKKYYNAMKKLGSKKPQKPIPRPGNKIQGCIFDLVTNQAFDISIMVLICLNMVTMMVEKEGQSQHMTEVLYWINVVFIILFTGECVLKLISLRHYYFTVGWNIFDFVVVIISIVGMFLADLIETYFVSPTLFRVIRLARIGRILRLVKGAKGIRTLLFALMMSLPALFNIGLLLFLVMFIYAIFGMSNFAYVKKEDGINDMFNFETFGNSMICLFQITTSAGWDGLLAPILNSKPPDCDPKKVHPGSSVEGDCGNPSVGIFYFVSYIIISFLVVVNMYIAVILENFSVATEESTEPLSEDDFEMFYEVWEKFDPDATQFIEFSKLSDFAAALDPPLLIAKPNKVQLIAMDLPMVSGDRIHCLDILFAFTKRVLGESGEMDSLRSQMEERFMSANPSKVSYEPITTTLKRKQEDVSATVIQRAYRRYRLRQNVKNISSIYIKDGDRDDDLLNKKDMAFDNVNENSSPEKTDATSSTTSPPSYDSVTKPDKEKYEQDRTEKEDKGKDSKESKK

Row | IC50 [µM] | SMILES
1 | 1.85 | Cc1ccccc1-c1nccc2cc(S(=O)(=O)Nc3nccs3)ccc12 [Example 178, N-(THIAZOL-2-YL)-1-(O-TOLYL)ISOQUINOLINE-6-SULFONAMIDE]
2 | 1.3 | O=S(=O)(Nc1nccs1)c1ccc2c(-c3ccccc3Cl)nccc2c1 [Example 179, 1-(2-CHLOROPHENYL)-N-(THIAZOL-2-YL)ISOQUINOLINE-6-SULFONAMIDE]
3 | 13.9 | O=S(=O)(Nc1nccs1)c1ccc2c(-c3ccc(F)cc3Oc3ccccn3)nccc2c1 [Example 191, 1-(4-FLUORO-2-(PYRIDIN-2-YLOXY)PHENYL)-N-(THIAZOL-2-YL)ISOQUINOLINE-6-SULFONAMIDE]
4 | 0.51 | COc1cc(F)ccc1-c1ncc(O)c2cc(S(=O)(=O)Nc3nccs3)ccc12 [Example 233, 1-(4-FLUORO-2-METHOXYPHENYL)-4-HYDROXY-N-(THIAZOL-2-YL)ISOQUINOLINE-6-SULFONAMIDE 2,2,2-TRIFLUOROACETATE]
5 | 0.98 | COc1ccccc1-c1ncc(O)c2cc(S(=O)(=O)Nc3nccs3)ccc12 [Example 234, 4-HYDROXY-1-(2-METHOXYPHENYL)-N-(THIAZOL-2-YL)ISOQUINOLINE-6-SULFONAMIDE 2,2,2-TRIFLUOROACETATE]
6 | 1.27 | COc1cc(C(F)(F)F)ccc1-c1cnnc2cc(S(=O)(=O)Nc3ccncn3)ccc12 [Example 260, 4-(2-METHOXY-4-(TRIFLUOROMETHYL)PHENYL)-N-(PYRIMIDIN-4-YL)CINNOLINE-7-SULFONAMIDE]
7 | 0.58 | COc1cc(C(F)(F)F)ccc1-c1ccnc2cc(S(=O)(=O)Nc3ccncn3)ccc12 [Example 279, 4-(2-METHOXY-4-(TRIFLUOROMETHYL)PHENYL)-N-(PYRIMIDIN-4-YL)QUINOLINE-7-SULFONAMIDE]
8 | 4.45 | COc1cc(C#N)ccc1-c1ccnc2cc(S(=O)(=O)Nc3ccncn3)ccc12 [Example 280, 4-(4-CYANO-2-METHOXYPHENYL)-N-(PYRIMIDIN-4-YL)QUINOLINE-7-SULFONAMIDE]
9 | 1.93 | COc1ccccc1-c1ccnc2cc(S(=O)(=O)Nc3ccncn3)ccc12 [Example 281, 4-(2-METHOXYPHENYL)-N-(PYRIMIDIN-4-YL)QUINOLINE-7-SULFONAMIDE]
10 | 3.29 | COc1cc(C(F)(F)F)ccc1-c1ccnc2cc(S(=O)(=O)Nc3nccs3)cc(C)c12 [Example 282, 4-(2-METHOXY-4-(TRIFLUOROMETHYL)PHENYL)-5-METHYL-N-(THIAZOL-2-YL)QUINOLINE-7-SULFONAMIDE]
11 | 4.22 | COc1cc(C#N)ccc1-c1cncc2cc(S(=O)(=O)Nc3ccncn3)ccc12 [Example 286, 4-(4-CYANO-2-METHOXYPHENYL)-N-(PYRIMIDIN-4-YL)ISOQUINOLINE-7-SULFONAMIDE HYDROCHLORIDE]
12 | 4.15 | COc1ccccc1-c1cncc2cc(S(=O)(=O)Nc3ccncn3)ccc12 [Example 287, 4-(2-METHOXYPHENYL)-N-(PYRIMIDIN-4-YL)ISOQUINOLINE-7-SULFONAMIDE HYDROCHLORIDE]

Row | SMILES | IC50 [µM]
13 | O=S(=O)(Nc1ncns1)c1ccc2c(N3CCC[C@H]3c3cccnc3)cccc2c1 (single isomer, unassigned) [Example 86] | 0.0627
14 | O=S(=O)(Nc1ncns1)c1ccc2c(N3CCC[C@@H]3c3ccncc3)cccc2c1 (single isomer, unassigned) [Example 90] | 0.0393
15 | O=S(=O)(Nc1nccs1)c1ccc2c(-c3ccc(F)cc3C3=CCOC3)nccc2c1 [Example 127, 1-(2-(2,5-DIHYDROFURAN-3-YL)-4-FLUOROPHENYL)-N-(THIAZOL-2-YL)ISOQUINOLINE-6-SULFONAMIDE TRIFLUOROACETATE] | 2.22
16 | Cn1cc(-c2cc(F)ccc2-c2nccc3cc(S(=O)(=O)Nc4nccs4)ccc23)cn1 [Example 129, 1-(4-FLUORO-2-(1-METHYL-1H-PYRAZOL-4-YL)PHENYL)-N-(THIAZOL-2-YL)ISOQUINOLINE-6-SULFONAMIDE TRIFLUOROACETATE] | 8
17 | COc1cc(C(F)(F)F)ccc1-c1nccc2cc(S(=O)(=O)N=C3NC(=O)CS3)ccc12 [Example 248, (E/Z)-1-(2-METHOXY-4-(TRIFLUOROMETHYL)PHENYL)-N-(4-OXOTHIAZOLIDIN-2-YLIDENE)ISOQUINOLINE-6-SULFONAMIDE] | 0.91
